# Laboratory results as given in ChEMBL document CHEMBL3272271, “Folate antagonists. 13. 2,4-Diamino-6-](alpha,alpha,alpha-trifluoro-m-tolyl)thio]quinazoline and related 2,4-diamino-6-[(phenyl- and naphthyl)thio]quinazolines, a unique class of antimetabolites with extraordinary antimalarial and antibacterial effects” (J Med Chem, 1978).
# Active and inactive are the calls of the source. The rule behind the calls is not given here.
# Columns and labels:
# Plasmodium gallinaceum [1] = test: Antimalarial activity against trophozoite-induced Plasmodium gallinaceum infected in white leghorn chicken assessed as disease cure from parasite infection at 100 mg/kg, sc administered 72 hrs after infection; type: functional, organism-based; set-up: dose 100 mg/kg
# Plasmodium berghei [2] = test: Antimalarial activity against Plasmodium berghei infected in mouse assessed as increase in mean survival days of host at 20 mg/kg, sc administered 72 hrs after infection relative to control; type: functional; conditions: route subcutaneous
# Plasmodium berghei [3] = test: Antimalarial activity against Plasmodium berghei infected in mouse assessed as increase in mean survival days of host at 10 mg/kg, sc administered 72 hrs after infection relative to control; type: functional; conditions: route subcutaneous
# Plasmodium berghei [4] = test: Antimalarial activity against chloroquine-resistant Plasmodium berghei assessed as drug resistance; type: functional, organism-based
# Plasmodium berghei [5] = test: Antimalarial activity against cycloguanil-resistant Plasmodium berghei assessed as drug resistance; type: functional, organism-based
# Plasmodium berghei [6] = test: Antimalarial activity against Plasmodium berghei infected in mouse assessed as increase in mean survival days of host at 5 mg/kg, sc administered 72 hrs after infection relative to control; type: functional; conditions: route subcutaneous
# Plasmodium berghei [7] = test: Antimalarial activity against Plasmodium berghei infected in mouse assessed as increase in mean survival days of host at 2.5 mg/kg, sc administered 72 hrs after infection relative to control; type: functional; conditions: route subcutaneous
# Plasmodium berghei [8] = test: Antimalarial activity against Plasmodium berghei infected in mouse assessed as increase in mean survival days of host at 1.25 mg/kg, sc administered 72 hrs after infection relative to control; type: functional; conditions: route subcutaneous
# Plasmodium berghei [9] = test: Antimalarial activity against Plasmodium berghei infected in mouse assessed as disease cure from parasite infection at 640 mg/kg, sc administered 72 hrs after infection; type: functional, organism-based; set-up: dose 640 mg/kg
# Plasmodium berghei [10] = test: Antimalarial activity against Plasmodium berghei infected in mouse assessed as disease cure from parasite infection at 320 mg/kg, sc administered 72 hrs after infection; type: functional, organism-based; set-up: dose 320 mg/kg
# Plasmodium berghei [11] = test: Antimalarial activity against Plasmodium berghei infected in mouse assessed as disease cure from parasite infection at 160 mg/kg, sc administered 72 hrs after infection; type: functional, organism-based; set-up: dose 160 mg/kg
# Plasmodium berghei [12] = test: Antimalarial activity against Plasmodium berghei infected in mouse assessed as disease cure from parasite infection at 80 mg/kg, sc administered 72 hrs after infection; type: functional, organism-based; set-up: dose 80 mg/kg
# Plasmodium berghei [13] = test: Antimalarial activity against Plasmodium berghei infected in mouse assessed as disease cure from parasite infection at 40 mg/kg, sc administered 72 hrs after infection; type: functional, organism-based; set-up: dose 40 mg/kg
# Plasmodium berghei [14] = test: Antimalarial activity against Plasmodium berghei infected in mouse assessed as disease cure from parasite infection at 20 mg/kg, sc administered 72 hrs after infection; type: functional, organism-based; set-up: dose 20 mg/kg
# Plasmodium berghei [15] = test: Antimalarial activity against Plasmodium berghei infected in mouse assessed as disease cure from parasite infection at 10 mg/kg, sc administered 72 hrs after infection; type: functional, organism-based; set-up: dose 10 mg/kg
# Plasmodium gallinaceum [16] = test: Antimalarial activity against trophozoite-induced Plasmodium gallinaceum infected in white leghorn chicken assessed as increase in mean survival days of host at 100 mg/kg, sc administered 72 hrs after infection relative to control; type: functional; conditions: route subcutaneous
# Plasmodium gallinaceum [17] = test: Antimalarial activity against trophozoite-induced Plasmodium gallinaceum infected in white leghorn chicken assessed as disease cure from parasite infection at 320 mg/kg, sc administered 72 hrs after infection; type: functional, organism-based; set-up: dose 320 mg/kg
# Plasmodium gallinaceum [18] = test: Antimalarial activity against trophozoite-induced Plasmodium gallinaceum infected in white leghorn chicken assessed as disease cure from parasite infection at 160 mg/kg, sc administered 72 hrs after infection; type: functional, organism-based; set-up: dose 160 mg/kg
# Plasmodium gallinaceum [19] = test: Antimalarial activity against trophozoite-induced Plasmodium gallinaceum infected in white leghorn chicken assessed as disease cure from parasite infection at 80 mg/kg, sc administered 72 hrs after infection; type: functional, organism-based; set-up: dose 80 mg/kg
# Plasmodium gallinaceum [20] = test: Antimalarial activity against trophozoite-induced Plasmodium gallinaceum infected in white leghorn chicken assessed as increase in mean survival days of host at 120 mg/kg, sc administered 72 hrs after infection relative to control; type: functional; conditions: route subcutaneous
# Plasmodium gallinaceum [21] = test: Antimalarial activity against sporozoite-induced Plasmodium gallinaceum infected in white leghorn chicken assessed as disease cure from parasite infection at 480 mg/kg, sc administered 72 hrs after infection; type: functional, organism-based; set-up: dose 480 mg/kg
# Plasmodium gallinaceum [22] = test: Antimalarial activity against sporozoite-induced Plasmodium gallinaceum infected in white leghorn chicken assessed as disease cure from parasite infection at 320 mg/kg, sc administered 72 hrs after infection; type: functional, organism-based; set-up: dose 320 mg/kg
# Gallus gallus = test: Toxicity in sporozoite-induced Plasmodium gallinaceum infected white leghorn chicken assessed as mortality at 480 mg/kg, sc administered 72 hrs after infection measured up to 6 days; type: organism-based; set-up: dose 480 mg/kg, route subcutaneous; conditions: in vivo
# Plasmodium gallinaceum [23] = test: Antimalarial activity against sporozoite-induced Plasmodium gallinaceum infected in white leghorn chicken assessed as disease cure from parasite infection at 240 mg/kg, sc administered 72 hrs after infection; type: functional, organism-based; set-up: dose 240 mg/kg
# Plasmodium gallinaceum [24] = test: Antimalarial activity against sporozoite-induced Plasmodium gallinaceum infected in white leghorn chicken assessed as disease cure from parasite infection at 160 mg/kg, sc administered 72 hrs after infection; type: functional, organism-based; set-up: dose 160 mg/kg
# Plasmodium gallinaceum [25] = test: Antimalarial activity against sporozoite-induced Plasmodium gallinaceum infected in white leghorn chicken assessed as disease cure from parasite infection at 120 mg/kg, sc administered 72 hrs after infection; type: functional, organism-based; set-up: dose 120 mg/kg
# Plasmodium gallinaceum [26] = test: Antimalarial activity against sporozoite-induced Plasmodium gallinaceum infected in white leghorn chicken assessed as disease cure from parasite infection at 80 mg/kg, sc administered 72 hrs after infection; type: functional, organism-based; set-up: dose 80 mg/kg
# Plasmodium gallinaceum [27] = test: Antimalarial activity against sporozoite-induced Plasmodium gallinaceum infected in white leghorn chicken assessed as disease cure from parasite infection at 60 mg/kg, sc administered 72 hrs after infection; type: functional, organism-based; set-up: dose 60 mg/kg
# Plasmodium gallinaceum [28] = test: Antimalarial activity against sporozoite-induced Plasmodium gallinaceum infected in white leghorn chicken assessed as increase in mean survival days of host at 30 mg/kg, sc administered 72 hrs after infection relative to control; type: functional; conditions: route subcutaneous
# Plasmodium gallinaceum [29] = test: Antimalarial activity against sporozoite-induced Plasmodium gallinaceum infected in white leghorn chicken assessed as disease cure from parasite infection at 30 mg/kg, sc administered 72 hrs after infection; type: functional, organism-based; set-up: dose 30 mg/kg
# Plasmodium gallinaceum [30] = test: Antimalarial activity against sporozoite-induced Plasmodium gallinaceum infected in white leghorn chicken assessed as increase in mean survival days of host at 15 mg/kg, sc administered 72 hrs after infection relative to control; type: functional; conditions: route subcutaneous
# Plasmodium gallinaceum [31] = test: Antimalarial activity against sporozoite-induced Plasmodium gallinaceum infected in white leghorn chicken assessed as disease cure from parasite infection at 15 mg/kg, sc administered 72 hrs after infection; type: functional, organism-based; set-up: dose 15 mg/kg
# Plasmodium berghei [32] = test: Antimalarial activity against trophozoite-induced Plasmodium berghei infected in mouse assessed as daily dose required to suppression of 90% parasite infection administered with diet for 6 days; type: functional
# Plasmodium berghei [33] = test: Ratio of quinine hydrochloride SD90 to compound SD90 for trophozoite-induced Plasmodium berghei infected in mouse assessed as daily dose required to suppression of 90% parasite infection administered with diet for 6 days; type: functional
# Plasmodium gallinaceum [34] = test: Antimalarial activity against trophozoite-induced Plasmodium gallinaceum infected in white leghorn chicken assessed as increase in mean survival days of host at 320 mg/kg, sc administered 72 hrs after infection relative to control; type: functional; conditions: route subcutaneous
# Plasmodium gallinaceum [35] = test: Antimalarial activity against trophozoite-induced Plasmodium gallinaceum infected in white leghorn chicken assessed as increase in mean survival days of host at 80 mg/kg, sc administered 72 hrs after infection relative to control; type: functional; conditions: route subcutaneous
compound,measurement,setting,value
Nc1nc(N)c2cc(Sc3ccc(Cl)c(Cl)c3)ccc2n1,Activity,Plasmodium gallinaceum [1],Active
same,MST,Plasmodium berghei [2],15.9 days
same,MST,Plasmodium berghei [3],11.7 days
same,Activity,Plasmodium berghei [4],inactive
same,Activity,Plasmodium berghei [5],Active
same,MST,Plasmodium berghei [6],8.5 days
same,MST,Plasmodium berghei [7],5.9 days
same,MST,Plasmodium berghei [8],0.9 days
same,Activity,Plasmodium berghei [9],Active
same,Activity,Plasmodium berghei [10],Active
same,Activity,Plasmodium berghei [11],Active
same,Activity,Plasmodium berghei [12],Active
same,Activity,Plasmodium berghei [13],Active
same,Activity,Plasmodium berghei [14],Active
same,Activity,Plasmodium berghei [15],Active
same,MST,Plasmodium gallinaceum [16],20.8 days
CC(=O)O.Nc1nc(N)c2cc(N(Cc3ccc(Cl)c(Cl)c3)N=O)ccc2n1,Activity,Plasmodium gallinaceum [17],Active
same,Activity,Plasmodium gallinaceum [18],Active
same,Activity,Plasmodium gallinaceum [19],Active
same,MST,Plasmodium gallinaceum [20],16.9 days
same,Activity,Plasmodium gallinaceum [21],Active
same,Activity,Plasmodium gallinaceum [22],Active
same,Activity,Gallus gallus,Toxic
same,Activity,Plasmodium gallinaceum [23],Active
same,Activity,Plasmodium gallinaceum [24],Active
same,Activity,Plasmodium gallinaceum [25],Active
same,Activity,Plasmodium gallinaceum [26],Active
same,Activity,Plasmodium gallinaceum [27],Active
same,MST,Plasmodium gallinaceum [28],0 days
same,Activity,Plasmodium gallinaceum [29],Active
same,MST,Plasmodium gallinaceum [30],0 days
same,Activity,Plasmodium gallinaceum [31],Active
same,MST,Plasmodium berghei [2],22.4 days
same,Activity,Plasmodium berghei [10],Active
same,Activity,Plasmodium berghei [11],Active
same,Activity,Plasmodium berghei [12],Active
same,Activity,Plasmodium berghei [14],Active
same,SD90,Plasmodium berghei [32],0.27 mg/kg/day
same,Ratio,Plasmodium berghei [33],270
same,MST,Plasmodium gallinaceum [34],16.9 days
same,MST,Plasmodium gallinaceum [35],16.9 days
